Experimental data published in PMC11478334, “Quaternized Curcumin Derivative—Synthesis, Physicochemical Characteristics, and Photocytotoxicity, Including Antibacterial Activity after Irradiation with Blue Light” (Molecules, 2024).
Read-outs that look alike come from different tables or passages of the source.

How the values were obtained:
[1] = UV-vis absorption spectra (spectral properties); assay type: physicochemical
Description: In the UV–vis spectra of the studied curcumin derivatives 2 and 3, typical absorption bands in the 350–550 nm range were noted (Figure 7). The absorption maxima of 2 and its quaternized derivative 3 were located close to 500 nm in both DMSO and DMF (for 2, λmax 496 nm in DMF and 502 nm in DMSO; for 3, λmax 489 nm in DMF and 495 nm in DMSO), whereas for the unsubstituted curcumin, the absorption maximum was located at 430 nm in DMF and 436 nm in DMSO. This implies that the presence of the BF2 moiety induces a strong bathochromic shift, as reported before. Further conversion of non-ionic 2-(morpholin-4-yl)ethoxy substituents present in 2 into quaternary ammonium cations present in 3 2-(N-methylmorpholinium)ethoxy groups induced a slight […] hypsochromic shift in both solvents. The strong absorption band originates mainly from π-π* electronic transition. To a lesser extent, such peaks come from the n-π* transition, although the importance of this crossing remains unclear.

Aliivibrio fischeri = assay: Microtox acute toxicity test; assay type: cell-based; details: for acute toxicity / ecotoxicity verdict: tested at 1, 10 and 100 µM
Description: All studied compounds were subjected to a Microtox acute toxicity test. The test is based on bioluminescent Aliivibrio fischeri bacteria, which are very sensitive to the presence of toxic substances. Changes in the toxicity of the environment surrounding the bacterium influence its respiratory processes and translate into the emitted bioluminescence intensity. Therefore, in contact with a toxic substance at a specific concentration, a linear decrease in luminescence is observed. Dimethylsulfoxide was used as a solubilizer of studied compounds in amounts not exceeding 1% v/v. To determine the effect of the solvent alone, 1% DMSO solution in water was also tested.
The acute toxicity of the tested curcumionoids was investigated on a Modern Water Microtox Model 500 apparatus equipped with Modern Water MicrotoxOmni 4.2 software, according to the 81.9% screening test procedure provided by the manufacturer (Modern Water, London, UK). All the reagents and solutions (Microtox Acute Reagent, Microtox Diluent, and Microtox Osmotic Adjusting Solution) were purchased from Tigret (Warsaw, Poland). Solutions of the tested compounds were prepared using DMSO and deionized water. […] Each compound was tested at three final concentrations (1 µM, 10 µM, and 100 µM) and at two time points: 5 min and 15 min. The change in the bacterial bioluminescence was monitored after the addition of the sample solution and compared to the negative control.

[2] = Aggregation studies by UV-vis serial dilution; assay type: physicochemical; details: in DMF
Protocol: The aggregation properties of the studied compounds were evaluated using statistical analysis of the UV–vis absorption spectra during serial dilution. […] This can be associated with the presence of a positive charge that prevents aggregation due to the repulsion of the same charges. […] According to the literature, DMSO can permeate into curcumin clusters and stabilize the non-aggregated molecules due to solvation.
The aggregation studies were performed at ambient temperature. Known amounts of 2, 3, and curcumin as a reference in volumetric flasks were dissolved in DMSO and DMF and left to stir overnight. Then, the solutions were diluted appropriately to achieve concentrations in the range between 1.5 × 10^−6 mol/dm^3 and 5.5 × 10^−5 mol/dm^3. The samples were then moved into quartz cuvettes (l = 10 mm, Hellma, Müllheim, Germany), and their spectra were recorded using a Shimadzu U-1900 spectrophotometer (Shimadzu, Kyoto, Japan). The recorded spectra and numerical data were then used for the determination of the dependence between the maximum peak absorption and the sample concentration according to the A = f(c) function, used further for statistical verification of the Lambert–Beer law.

MRC-5—lung fibroblasts = assay: MTT cell viability assay; assay type: cell-based, human
Protocol: To determine the toxicity of the tested compounds against normal and tumor cells, a cell viability assay was performed using MTT dye. The following cell lines were used: PHDF—primary human dermal fibroblasts, MRC-5—lung fibroblasts, WM266-4—melanoma, and WM115—melanoma. Whenever possible, the IC50 value was calculated for each cell line. The IC50 results are reported in Table 9, while Figure 14 presents graphs illustrating the dependence of cell viability on the concentration of the tested compounds.
In order to analyze the cytotoxic effect of curcumin and compounds 2 and 3, different cell lines were used: PHDF—primary human dermal fibroblasts, MRC-5—lung fibroblasts, WM266-4—melanoma (low-melanotic), and WM115—melanoma (high-melanotic). All cell lines were seeded onto 96-well flat-bottom plates at a concentration of 15,000 cells/well. Curcumin (1) and compounds 2 and 3 were dissolved in the completed culture medium at the final concentrations of 5 µM, 10 µM, 20 µM, 30 µM, 40 µM, and 50 µM. The final volume of medium in each well was 200 µL. Cells which were not exposed to the tested compounds constituted a control group. After 24 h, each of the reagents was added to the cells. Control cells were not treated with synthesized reagents; they were incubated with a completed cell culture medium. The incubation of cells with 1, 2, or 3 lasted 24 and 48 h. Then, the medium was discarded, and the new medium containing MTT (3-(4,5-dimethylthiazol-2-yl)-2,5-diphenyltetrazolium bromide) (Affymetrix, Cleveland, OH, USA) at a final concentration of 0.5 mg/mL was added to the cell culture. Cells were incubated for 2.5 h in cell culture conditions. Next, the medium was removed, and 100 µL of DMSO (Thermo Scientific, Waltham, MA, USA) was added to dissolve the formed formazan crystals. The absorbance was read with a Multiskan plate reader at 570 nm and the background at 655 nm (Thermo Scientific, Waltham, MA, USA). The experiment was performed in triplicate.
PHDF cells were extracted from skin pieces collected following mastectomy procedures at the Greater Poland Cancer Centre in Poznań, Poland. Each time, informed patient agreement was acquired for the “The Cancer Genome Atlas (TCGA)” project to utilize biological material for scientific research purposes. […] The MRC-5, WM266-4, and WM115 cell lines were obtained from the American Type Culture Collection (ATCC). For culturing of the PHDF, WM266-4, and WM115 cell lines, the medium contained Dulbecco′s Modified Eagle′s Medium (DMEM) (Biowest, Nuaillé, France), 10% of fetal bovine serum (Biowest, Nuaillé, France), and 1% of penicillin/streptomycin agents (Merck Millipore, Darmstadt, Germany). Cells were incubated in a humidified incubator containing 5% CO2. The MRC-5 cell line was cultured similarly to the method described in our previous article. Briefly, cells were incubated at 37 °C in an atmosphere enriched with 5% CO2. The basic culture medium was Dulbecco’s Modified Eagle’s Medium (DMEM) (Biowest, Nuaillé, France) supplemented with 10% fetal bovine serum (FBS) (Biowest, Nuaillé, France) with the addition of 2 mM L-glutamine and 5% non-essential amino acid solution.

[3] = Homo sapiens, Fibroblast, 24 h incubation, read-out: IC50 24 h
[4] = Homo sapiens, Fibroblast, 48 h incubation, read-out: IC50 48 h (converted)

Molecule	absorption maximum λmax ([1]; in DMF) [nm]	absorption maximum λmax ([1]; in DMSO) [nm]	decrease in A. fischeri bioluminescence (Aliivibrio fischeri; 100 µM) [%]	effect on A. fischeri bioluminescence (Aliivibrio fischeri; lower concentrations (below 100 µM))	aggregation [2]	IC50 (MRC-5—lung fibroblasts; [3]) [µM]	IC50 (MRC-5—lung fibroblasts; [4]) [µM]	decrease in A. fischeri bioluminescence (Aliivibrio fischeri; 10 µM, after 5 min exposure) [%]	acute toxicity / ecotoxicity verdict (Aliivibrio fischeri)	decrease in A. fischeri bioluminescence (Aliivibrio fischeri; 1 µM) [%]	decrease in A. fischeri bioluminescence (Aliivibrio fischeri; 10 µM) [%]	IC50 (MRC-5—lung fibroblasts; 24 h incubation, read-out: IC50 24 h) [µM]	IC50 (MRC-5—lung fibroblasts; 48 h incubation, read-out: IC50 48 h (converted)) [µM]
F[B-]1(F)OC(/C=C/c2ccc(OCCN3CCOCC3)cc2)=CC(/C=C/c2ccc(OCCN3CCOCC3)cc2)=[O+]1 [Compound 2]	496	502	45	negligible	strong aggregation	> 50	3.8	–	–	–	–	–	–
C[N+]1(CCOc2ccc(C=CC3=CC(C=Cc4ccc(OCC[N+]5(C)CCOCC5)cc4)=[O+][B-](F)(F)O3)cc2)CCOCC1 [Compound 3]	489	495	99	–	negligible	> 50	> 50	53	could be ecotoxic at concentrations of 10 µM and 100 µM	–	–	–	–
Curcumin [reference compound]	430	436	–	–	strong aggregation	–	–	–	reveals ecotoxicity only at concentrations of 100 µM and 10 µM	0	99	39.5 ± 8.8	18.1
